# Laboratory results reported in US12492181B2, “Gem-disubstituted piperidine melanocortin subtype-2 receptor (MC2R) antagonists and uses thereof” (Crinetics Pharmaceuticals, Inc., priority 2019, dated 2025).
# Molecular target: T1, hMC2 receptor (crude hMC2R membranes from CRE-bla-CHO-K1 cells stably expressing hMC2 receptor and hMRAP accessory protein) (Homo sapiens, UniProt Q01718)
# T1 construct: crude membrane fractions
# Test: hMC2 membrane binding assay ([125I]ACTH (1-39) Tyr23, SPA)
# Conditions: displacement of 0.2 nM [125I]ACTH (1-39) Tyr23 from hMC2R membranes, 1.5 hours at room temperature; read-out: MC2R binding potency
# Description: Crude membrane fractions are prepared from CRE-bla-CHO-K1 cells stably expressing hMC2 receptor and hMRAP accessory protein (Thermo Fisher). The cells are grown to 85-100% confluence on standard tissue culture dishes in GlutaMax DMEM growth media (Gibco) with following additives: 10% dialyzed FBS (Gemini), 0.1 mM NEAA (Gibco), 25 mM HEPES (Gibco), 5 μg/mL blasticidin (Goldbio), 100 μg/mL zeocin (Invitrogen), 600 μg/mL hygromycin (Goldbio). To prepare membranes, cells are scraped and collected in 1× Dulbecco's phosphate buffered saline (Corning) and then pelleted at 1000 RPM's. The cell pellet is reconstituted in membrane preparation buffer (20 mM HEPES, 6 mM MgCl2 and 1 mM EGTA, protease inhibitor tablets (Pierce) adjusted to pH 7.4), homogenized using a dounce homogenizer, and the resulting membrane fraction is pelleted by centrifugation at 12,000 RPM's. The membrane pellet is resuspended in membrane preparation buffer, snap freezed and stored at −80° C. for later use.
# Binding Assay for hMC2 Antagonists Protocol:
# The hMC2 membrane binding assay utilizes the following components: radiolabel [^125I]ACTH (1-39) Tyr23 (PerkinElmer), wheatgerm agglutinin coated PVT SPA beads (PerkinElmer), crude hMC2R membranes, and compounds. Briefly hMC2R membranes are incubated with SPA beads in binding assay buffer (50 mM HEPES, 5 mM MgCl2, 1 mM CaCl2), 0.20% BSA, protease inhibitor tablets (Pierce) adjusted to pH7.4) prior to assay initiation. […] Assay plates are read using a Top Count NXT and Ki values for compounds are determined using a GraphPad Prism 6 non-linear regression analysis.
# T1 sequence (Q01718 whole entry): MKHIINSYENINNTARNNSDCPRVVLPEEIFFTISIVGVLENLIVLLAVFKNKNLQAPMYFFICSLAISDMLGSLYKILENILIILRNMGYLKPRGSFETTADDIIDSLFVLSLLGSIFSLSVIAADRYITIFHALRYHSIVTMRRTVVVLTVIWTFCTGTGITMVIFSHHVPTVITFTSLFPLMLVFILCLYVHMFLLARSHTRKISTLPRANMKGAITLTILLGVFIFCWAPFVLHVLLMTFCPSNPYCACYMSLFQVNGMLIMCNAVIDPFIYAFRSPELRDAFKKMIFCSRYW
# T1 sequence (Q8TCY5 whole entry partner): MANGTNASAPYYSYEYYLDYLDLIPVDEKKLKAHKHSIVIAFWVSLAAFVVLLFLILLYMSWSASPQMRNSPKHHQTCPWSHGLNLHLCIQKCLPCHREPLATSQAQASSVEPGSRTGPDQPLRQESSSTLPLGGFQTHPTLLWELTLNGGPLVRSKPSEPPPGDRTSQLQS
row,Structure (SMILES),Ki [nM]
1,"CCOc1ncccc1-c1ccc(C2(C(=O)N[C@H]3CCNC3)CCN(c3ccc(C(F)(F)F)cc3C#N)CC2)cn1 [Compound 1-12, 1-[2-cyano-4-(trifluoromethyl)phenyl]-4-{2′-ethoxy-[2,3′-bipyridin]-5-yl}-N-[(3S)-pyrrolidin-3-yl]piperidine-4-carboxamide]",< 10
2,"CCOc1ncccc1-c1ccc(C2(C(=O)NCCN)CCN(c3ccc(C(F)(F)F)cc3C#N)CC2)cn1 [Compound 1-13, N-(2-aminoethyl)-1-[2-cyano-4-(trifluoromethyl)phenyl]-4-{2′-ethoxy-[2,3′-bipyridin]-5-yl}piperidine-4-carboxamide]",< 10
3,"CCOc1ncccc1-c1ccc(C2(C(=O)NCCNC)CCN(c3ccc(C(F)(F)F)cc3C#N)CC2)cn1 [Compound 1-14, 1-[2-cyano-4-(trifluoromethyl)phenyl]-4-{2′-ethoxy-[2,3′-bipyridin]-5-yl}-N-[2-(methylamino)ethyl]piperidine-4-carboxamide]",< 10
4,"CCOc1ncccc1-c1ccc(C2(C(=O)NC[C@@H](N)CO)CCN(c3ccc(C(F)(F)F)cc3C#N)CC2)cn1 [Compound 1-17, N-[(2R)-2-amino-3-hydroxypropyl]-1-[2-cyano-4-(trifluoromethyl)phenyl]-4-{2′-ethoxy-[2,3′-bipyridin]-5-yl}piperidine-4-carboxamide]",< 10
5,"CCOc1ncccc1-c1ccc(C2(C(=O)NC3CN(C)C3)CCN(c3ccc(C(F)(F)F)cc3C#N)CC2)cn1 [Compound 1-19, 1-[2-cyano-4-(trifluoromethyl)phenyl]-4-{2′-ethoxy-[2,3′-bipyridin]-5-yl}-N-(1-methylazetidin-3-yl)piperidine-4-carboxamide]",< 10
6,"CCOc1ncccc1-c1ccc(C2(C(=O)N[C@@H]3CN4CCC3CC4)CCN(c3ccc(C(F)(F)F)cc3C#N)CC2)cn1 [Compound 1-20, N-[(3S)-1-azabicyclo[2.2.2]octan-3-yl]-1-[2-cyano-4-(trifluoromethyl)phenyl]-4-{2′-ethoxy-[2,3′-bipyridin]-5-yl}piperidine-4-carboxamide]",< 10
7,"CCOc1ncccc1-c1ccc(C2(C(=O)N[C@@H]3CCNC3)CCN(c3ccc(C(F)(F)F)cc3C#N)CC2)nc1 [Compound 1-21, 1-[2-cyano-4-(trifluoromethyl)phenyl]-4-{2′-ethoxy-[3,3′-bipyridin]-6-yl}-N-[(3R)-pyrrolidin-3-yl]piperidine-4-carboxamide]",< 10
8,"CCOc1ncccc1-c1ccc(C2(C(=O)N[C@@H]3CCN(C)C3)CCN(c3ccc(C(F)(F)F)cc3C#N)CC2)nc1 [Compound 1-22, 1-[2-cyano-4-(trifluoromethyl)phenyl]-4-{2′-ethoxy-[3,3′-bipyridin]-6-yl}-N-[(3R)-1-methylpyrrolidin-3-yl]piperidine-4-carboxamide]",< 10
9,"CCOc1ncccc1-c1ccc(C2(C(=O)N[C@@H]3CCN(C)C3)CCN(c3ccc(C(F)(F)F)nc3C#N)CC2)cc1 [Compound 1-23, 1-[2-cyano-6-(trifluoromethyl)pyridin-3-yl]-4-[4-(2-ethoxypyridin-3-yl)phenyl]-N-[(3R)-1-methylpyrrolidin-3-yl]piperidine-4-carboxamide]",< 10
10,"CCOc1ncccc1-c1ccc(C2(C(=O)N[C@@H]3CCN(C)C3)CCN(c3ccc(C(F)(F)F)nc3C#N)CC2)cn1 [Compound 1-24, 1-[2-cyano-6-(trifluoromethyl)pyridin-3-yl]-4-{2′-ethoxy-[2,3′-bipyridin]-5-yl}-N-[(3R)-1-methylpyrrolidin-3-yl]piperidine-4-carboxamide]",< 10
11,"CCOc1ncccc1-c1ccc(C2(C(=O)N[C@H]3CCN(C)C3)CCN(c3ccc(C(F)(F)F)nc3C#N)CC2)cn1 [Compound 1-26, 1-[2-cyano-6-(trifluoromethyl)pyridin-3-yl]-4-{2′-ethoxy-[2,3′-bipyridin]-5-yl}-N-[(3S)-1-methylpyrrolidin-3-yl]piperidine-4-carboxamide]",< 10
12,"CCOc1ncccc1-c1ccc(C2(C(=O)NC[C@H](N)CO)CCN(c3ccc(C(F)(F)F)cc3C#N)CC2)cn1 [Compound 1-28, N-[(2S)-2-amino-3-hydroxypropyl]-1-[2-cyano-4-(trifluoromethyl)phenyl]-4-{2′-ethoxy-[2,3′-bipyridin]-5-yl}piperidine-4-carboxamide]",< 10
13,"CCOc1ncccc1-c1ccc(C2(C(=O)N[C@H]3CCN(C)C3)CCN(c3ccc(Cl)cc3C#N)CC2)cn1 [Compound 1-34, 1-(4-chloro-2-cyanophenyl)-4-{2′-ethoxy-[2,3′-bipyridin]-5-yl}-N-[(3S)-1-methylpyrrolidin-3-yl]piperidine-4-carboxamide]",< 10
14,"CCOc1ncccc1-c1ccc(C2(C(=O)N[C@H]3CCN(C)C3)CCN(c3ccc(C(F)(F)F)cn3)CC2)cn1 [Compound 1-35, 4-{2′-ethoxy-[2,3′-bipyridin]-5-yl}-N-[(3S)-1-methylpyrrolidin-3-yl]-1-[5-(trifluoromethyl)pyridin-2-yl]piperidine-4-carboxamide]",< 10
15,"CCOc1ncccc1-c1ccc(C2(C(=O)N[C@H]3CCN(C)C3)CCN(c3ccc(C(C)=O)cc3C#N)CC2)cn1 [Compound 1-36, 1-(4-acetyl-2-cyanophenyl)-4-{2′-ethoxy-[2,3′-bipyridin]-5-yl}-N-[(3S)-1-methylpyrrolidin-3-yl]piperidine-4-carboxamide]",< 10

# Now from value to molecule:
row,Ki [nM],Structure (SMILES)
1,10 to 100,"CCOc1ncccc1-c1ccc(C2(C(=O)NCCN(C)C)CCN(c3ccc(C(F)(F)F)cc3C#N)CC2)cn1 [Compound 1-15, 1-[2-cyano-4-(trifluoromethyl)phenyl]-N-[2-(dimethylamino)ethyl]-4-{2′-ethoxy-[2,3′-bipyridin]-5-yl}piperidine-4-carboxamide]"
2,< 10,"CCOc1ncccc1-c1ccc(C2(C(=O)NC[C@H](C)N)CCN(c3ccc(C(F)(F)F)cc3C#N)CC2)cn1 [Compound 1-16, N-[(2S)-2-aminopropyl]-1-[2-cyano-4-(trifluoromethyl)phenyl]-4-{2′-ethoxy-[2,3′-bipyridin]-5-yl}piperidine-4-carboxamide]"
3,< 10,"CCOc1ncccc1-c1ccc(C2(C(=O)NCC3CN(C)C3)CCN(c3ccc(C(F)(F)F)cc3C#N)CC2)cn1 [Compound 1-18, 1-[2-cyano-4-(trifluoromethyl)phenyl]-4-{2′-ethoxy-[2,3′-bipyridin]-5-yl}-N-[(1-methylazetidin-3-yl)methyl]piperidine-4-carboxamide]"
4,10 to 100,"CCOc1ncccc1-c1ccc(C2(C(=O)N[C@@H]3CCN(C)C3)CCN(c3ccc(C(F)(F)F)nc3C(N)=O)CC2)cn1 [Compound 1-25, 3-(4-{2′-ethoxy-[2,3′-bipyridin]-5-yl}-4-{[(3R)-1-methylpyrrolidin-3-yl]carbamoyl}piperidin-1-yl)-6-(trifluoromethyl)pyridine-2-carboxamide]"
5,10 to 100,"CCOc1ncccc1-c1ccc(C2(C(=O)N[C@H]3CCN(C)C3)CCN(c3ccc(C(F)(F)F)nc3C(N)=O)CC2)cn1 [Compound 1-27, 3-(4-{2′-ethoxy-[2,3′-bipyridin]-5-yl}-4-{[(3S)-1-methylpyrrolidin-3-yl]carbamoyl}piperidin-1-yl)-6-(trifluoromethyl)pyridine-2-carboxamide]"
6,10 to 100,"CCOc1ncccc1-c1ccc(C2(C(=O)N[C@@H]3CCN(C)C3)CCN(c3c(Cl)cc(C(F)(F)F)cc3C#N)CC2)cc1 [Compound 1-29, 1-[2-chloro-6-cyano-4-(trifluoromethyl)phenyl]-4-[4-(2-ethoxypyridin-3-yl)phenyl]-N-[(3R)-1-methylpyrrolidin-3-yl]piperidine-4-carboxamide]"
7,< 10,"CCOc1ccccc1-c1ccc(C2(C(=O)N[C@H]3CCN(C)C3)CCN(c3ccc(C(F)(F)F)cc3C#N)CC2)cn1 [Compound 1-30, 1-[2-cyano-4-(trifluoromethyl)phenyl]-4-[6-(2-ethoxyphenyl)pyridin-3-yl]-N-[(3S)-1-methylpyrrolidin-3-yl]piperidine-4-carboxamide]"
8,< 10,"CCOc1ccccc1-c1ccc(C2(C(=O)N[C@@H]3CCN(C)C3)CCN(c3ccc(C(F)(F)F)cc3C#N)CC2)cn1 [Compound 1-31, 1-[2-cyano-4-(trifluoromethyl)phenyl]-4-[6-(2-ethoxyphenyl)pyridin-3-yl]-N-[(3R)-1-methylpyrrolidin-3-yl]piperidine-4-carboxamide]"
9,10 to 100,"CCOc1ncccc1-c1ccc(C2(C(=O)N[C@H]3CCN(C)C3)CCN(c3ccccc3C#N)CC2)cn1 [Compound 1-32, 1-(2-cyanophenyl)-4-{2′-ethoxy-[2,3′-bipyridin]-5-yl}-N-[(3S)-1-methylpyrrolidin-3-yl]piperidine-4-carboxamide]"
10,< 10,"CCOc1ncccc1-c1ccc(C2(C(=O)N[C@H]3CCN(C)C3)CCN(c3ccc(C(F)(F)F)cc3)CC2)cn1 [Compound 1-33, 4-{2′-ethoxy-[2,3′-bipyridin]-5-yl}-N-[(3S)-1-methylpyrrolidin-3-yl]-1-[4-(trifluoromethyl)phenyl]piperidine-4-carboxamide]"
